Measured values: patent US20250241978A1, “PEPTIDE FOR PREVENTION OR TREATMENT OF COVID-19” (priority 2020, published 2025)

Test system: severe COVID-19 patients
Experiment: Observation of seriously ill COVID-19 ICU patients treated with orally inhaled solnatide (Example 2)
Experimental: Community patients with serious health conditions were admitted to a local hospital for examination. In some of these patients, COVID-19 was confirmed by positive testing for SARS-CoV-2 by nasopharyngeal swab and real-time RT-PCR.
Following worsening of conditions, seriously ill COVID-19 patients were admitted to the ICU of the hospital.
These patients were treated with placebo only in addition to standard critical care treatment and life support.
During an observation period of 7 days, patient-centred clinical parameters which reflect the severity of COVID-19 were recorded.
The SOFA score was used to track a patient's status during the stay in an intensive care unit (ICU) to determine the extent of the patient's organ function or rate of failure.

cyclo-CGQRETPEGAEAKPWYC [solnatide]
mean SOFA score at end of treatment period (COVID-19 ICU patients, orally inhaled solnatide twice daily plus standard critical care, after 7-day treatment period, FIG. 1): 8 | mean SOFA score at start of treatment period (COVID-19 ICU patients, orally inhaled solnatide twice daily plus standard critical care, start of 7-day treatment, FIG. 1): 12 | mean body temperature, change during treatment (COVID-19 ICU patients, orally inhaled solnatide twice daily, 7-day treatment period, elevated at initiation, FIG. 3): decreased | mean dynamic lung compliance at end of treatment period (COVID-19 ICU patients, orally inhaled solnatide twice daily, after 7-day treatment period, FIG. 2): 50 mL/cm H2O | mean dynamic lung compliance at start of treatment period (COVID-19 ICU patients, orally inhaled solnatide twice daily, start of 7-day treatment, FIG. 2): approx. 35 mL/cm H2O | patients who died within 28 days after onset of COVID-19 symptoms (severe COVID-19 patients treated with solnatide, comparator cohort: 3 patients died): none
